Laboratory results reported in patent US20210300924A1, “5-[6-[[3-(4,5,6,7-TETRAHYDROPYRAZOLO[4,3-C]PYRIDIN-1-YL)AZETIDIN-1-YL]METHYL]MORPHOLIN-4-YL]QUINOLINE-8-CARBONITRILE DERIVATIVES AND SIMILAR COMPOUNDS AS TLR7-9 ANTAGONISTS FOR TREATING SYSTEMIC LUPUS ERYTHEMATOSUS” (Hoffmann-La Roche Inc., priority 2018, published 2021).
Read-outs that look alike come from different tables or passages of the source.

How the values were obtained:
[1] = biological target: T1, TLR9 (Homo sapiens, UniProt Q9NR96); parameters: host or cells: HEK cells; settings: data disclosed in US20150105370; read-out: HEK/hTLR9 IC50; cited from earlier work
T1 sequence (Q9NR96 26-1032): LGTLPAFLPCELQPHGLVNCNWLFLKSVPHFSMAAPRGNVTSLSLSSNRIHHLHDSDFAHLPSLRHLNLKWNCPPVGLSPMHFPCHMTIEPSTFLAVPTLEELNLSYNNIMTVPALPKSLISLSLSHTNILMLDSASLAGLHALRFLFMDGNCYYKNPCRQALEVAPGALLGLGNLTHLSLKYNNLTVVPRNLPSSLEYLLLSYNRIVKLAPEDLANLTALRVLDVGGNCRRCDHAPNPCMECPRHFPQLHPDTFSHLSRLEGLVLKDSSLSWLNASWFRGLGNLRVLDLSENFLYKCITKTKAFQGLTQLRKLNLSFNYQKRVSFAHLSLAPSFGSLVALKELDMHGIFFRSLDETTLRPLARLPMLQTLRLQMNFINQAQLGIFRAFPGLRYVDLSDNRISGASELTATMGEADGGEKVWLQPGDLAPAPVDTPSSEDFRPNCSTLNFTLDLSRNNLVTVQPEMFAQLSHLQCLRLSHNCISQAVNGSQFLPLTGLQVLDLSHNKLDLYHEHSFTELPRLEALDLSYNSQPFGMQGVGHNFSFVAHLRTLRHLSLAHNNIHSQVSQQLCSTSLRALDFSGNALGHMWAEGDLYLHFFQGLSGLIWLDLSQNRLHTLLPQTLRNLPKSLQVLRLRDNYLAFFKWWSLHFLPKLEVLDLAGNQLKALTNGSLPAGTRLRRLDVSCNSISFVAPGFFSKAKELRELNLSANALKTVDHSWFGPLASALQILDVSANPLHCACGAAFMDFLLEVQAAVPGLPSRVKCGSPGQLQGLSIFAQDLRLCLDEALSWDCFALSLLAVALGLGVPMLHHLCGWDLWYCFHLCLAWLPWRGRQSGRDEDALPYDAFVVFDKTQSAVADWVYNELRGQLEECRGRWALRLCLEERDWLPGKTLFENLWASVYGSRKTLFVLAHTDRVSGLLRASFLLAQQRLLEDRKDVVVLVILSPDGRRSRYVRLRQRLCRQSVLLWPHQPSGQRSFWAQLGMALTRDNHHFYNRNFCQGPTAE

[2] = biological target: T1, TLR9; assay: Human PBMC cell-based assay; parameters: endogenous in cells; host or cells: human PBMC from healthy donor whole blood; settings: CpG ODN 2216 stimulation, overnight, cytokine readout, read-out: hPBMC/TLR9 IC50
Excerpt: Human PBMC Cell-Based Assay
Unlike the HEK reporter cell lines, human peripheral blood mononuclear cell (PBMC) represents primary human immune cells in blood mainly consisting of lymphocytes, monocytes, and dendritic cells. These cells express TLR7, TLR8, or TLR9, and therefore are natural responders to respective ligand stimulation. Upon activation of these TLRs, PBMCs secrete similar cytokines and chemokines in vitro and in vivo, and therefore the in vitro potency of a TLR7/8/9 antagonist in human PBMC is readily translatable to its pharmacodynamics response in vivo.
Human peripheral blood mononuclear cells (PBMC) were isolated from freshly-drawn lithium-heparinized (Lithium Heparin Plus blood Collection tube, BD Vacutainer®) healthy donor whole blood by density gradient (Ficoll-Paque™ PLUS, GE Healthcare life Sciences). Briefly, […] was diluted with 25 mL PBS (without Ca^2+, Mg^2+) in a 50 mL conical tube with porous barrier (Leucosep tube, Greiner bio-one), where 15.5 mL Ficoll-Paque was under laid after spinning. Tubes were centrifuged for 20 minutes at 800×g (1946 rpm) with the brake in the off position, and PBMC were collected from the buffy coat. Cells were then washed twice in PBS, and red blood cells were lysed by suspension in 2 mL (Red Blood Cell Lysis Buffer, Alfa Aesar) for 5-10 minutes at room temperature. After a final wash in PBS, PBMC were resuspended at a final concentration of 2×10^6 cells/mL in RPMI-1640 media with GlutaMAX™ (Gibco) supplemented with 10% Fetal Bovine Serum (Sigma) and plated at 150 μL/well (3×10^5 cells/well) in tissue culture treated round bottom 96-well plates (Corning Incorporated). Antagonist compounds (compounds of this invention) solubilized and serial diluted in 100% DMSO were added in duplicate to cells to yield a final concentration of 1% DMSO (v/v). PBMC were incubated with antagonist compounds for 30 minutes at 37° C., 5% CO2 before adding various TLR agonist reagents in 48 μL complete media per well as follows (final concentrations indicated): CpG ODN 2216 (InvivoGen) at […] for TLR9, ORN 06/LyoVec (InvivoGen) at 1 μg/mL for TLR8 and R848 (InvivoGen) at 1 μg/mL for TLR7 and TLR8. PBMC were incubated overnight at 37° C. with 5% CO2. Cell culture supernatants were collected, and levels of various human cytokines were assessed by Luminex assay (ProcartaPlex™ Multiplex Immunoassay, Invitrogen) or ELISA procedure according to the manufacturer's recommended protocol (eBioscience, ThermoFisher Scientific). Viability of the cells was also checked with Cell Viability Assay (CellTiter Glo® Luminescent Cell Viability Assay, Promega).

[3] = biological target: T2, hERG channel (Homo sapiens, UniProt Q12809); assay: hERG channel inhibition assay (patch-clamp, CHOhERG cells); type: cell-based; settings: for safety window (hERG IC20/TLR7/8/9 IC50) compared to the compounds of this invention: in words; for hERG IC20/TLR7 IC50 / hERG IC20/TLR9 IC50 / hERG IC20/TLR8 IC50: safety ratio, >30 suggests sufficient window
T2 construct: expressed in transfected cells; host or cells: CHO (Chinese hamster ovary), CHOhERG
Procedure: hERG Channel Inhibition Assay:
The hERG K^+ channels were cloned in humans and stably expressed in a CHO (Chinese hamster ovary) cell line. CHOhERG cells were used for patch-clamp (voltage-clamp, whole-cell) experiments. Cells were stimulated by a voltage pattern to activate hERG channels and conduct hERG currents (rapid delayed outward rectifier potassium current of the hERG channel). After the cells were stabilized for a few minutes, the amplitude and kinetics of IKhERG were recorded at a stimulation frequency of 0.1 Hz (6 bpm). Thereafter, the test compound was added to the preparation at increasing concentrations. For each concentration, an attempt was made to reach a steady-state effect, usually, this was achieved within 3-10 min at which time the next highest concentration was applied. The amplitude and kinetics of IKhERG are recorded in each concentration of the drug which were compared to the control values (taken as 100%). (references: Redfern W S, Carlsson L, Davis A S, Lynch W G, MacKenzie I, Palethorpe S, Siegl P K, Strang I, Sullivan A T, Wallis R, Camm A J, Hammond T G. 2003; Relationships between preclinical cardiac electrophysiology, clinical QT interval prolongation and torsade de pointes for a broad range of drugs: evidence for a provisional safety margin in drug development. Cardiovasc. Res. 58:32-45, Sanguinetti MC, Tristani-Firouzi M. 2006; hERG potassium channels and cardiac arrhythmia. Nature 440:463-469, Webster R, Leishman D, Walker D. 2002; Towards a drug concentration effect relationship for QT prolongation and torsades de pointes. Curr. Opin. Drug Discov. Devel. 5:116-26).

T2 sequence (Q12809 whole entry): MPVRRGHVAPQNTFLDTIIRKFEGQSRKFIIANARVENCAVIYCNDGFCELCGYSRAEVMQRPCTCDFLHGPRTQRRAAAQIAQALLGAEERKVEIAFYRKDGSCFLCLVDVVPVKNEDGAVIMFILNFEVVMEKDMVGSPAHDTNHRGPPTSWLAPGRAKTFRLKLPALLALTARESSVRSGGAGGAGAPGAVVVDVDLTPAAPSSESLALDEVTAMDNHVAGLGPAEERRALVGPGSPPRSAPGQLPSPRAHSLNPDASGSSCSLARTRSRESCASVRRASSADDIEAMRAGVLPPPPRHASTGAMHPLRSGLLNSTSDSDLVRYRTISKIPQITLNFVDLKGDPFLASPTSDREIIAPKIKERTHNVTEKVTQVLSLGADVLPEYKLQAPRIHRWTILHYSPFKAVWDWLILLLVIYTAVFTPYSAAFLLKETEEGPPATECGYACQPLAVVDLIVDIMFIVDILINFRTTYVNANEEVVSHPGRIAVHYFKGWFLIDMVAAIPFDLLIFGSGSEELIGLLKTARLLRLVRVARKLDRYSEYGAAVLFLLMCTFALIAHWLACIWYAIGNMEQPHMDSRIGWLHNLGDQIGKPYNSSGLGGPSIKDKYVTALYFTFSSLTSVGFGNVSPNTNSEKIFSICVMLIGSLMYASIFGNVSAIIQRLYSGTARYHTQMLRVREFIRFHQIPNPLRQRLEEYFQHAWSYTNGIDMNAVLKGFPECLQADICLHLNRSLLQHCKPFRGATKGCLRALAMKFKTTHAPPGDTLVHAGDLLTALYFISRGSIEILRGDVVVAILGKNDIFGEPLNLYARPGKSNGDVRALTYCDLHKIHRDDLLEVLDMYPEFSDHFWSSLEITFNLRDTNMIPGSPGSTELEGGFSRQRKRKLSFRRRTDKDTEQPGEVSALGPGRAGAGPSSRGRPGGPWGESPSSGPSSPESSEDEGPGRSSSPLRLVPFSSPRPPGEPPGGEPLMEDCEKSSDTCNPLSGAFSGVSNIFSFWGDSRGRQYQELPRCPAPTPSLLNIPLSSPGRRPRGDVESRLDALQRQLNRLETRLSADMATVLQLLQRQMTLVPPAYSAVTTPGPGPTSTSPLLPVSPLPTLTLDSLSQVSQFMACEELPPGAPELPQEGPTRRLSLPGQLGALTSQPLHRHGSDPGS

C[C@@H]1CN(c2ccc(C#N)c3ncccc23)C[C@H](CN2CC(NS(=O)(=O)c3ccc(F)cc3)C2)O1 [ER-894155]
IC50 [1]: > 10000 nM

C[C@@H]1CN(c2ccc(C#N)c3ncccc23)C[C@H](CN2CCN(c3ccncc3)CC2)O1 [ER-888286, reference compound]
IC50 [2]: 1630 nM | IC50 [1]: > 2000 nM | safety window (hERG IC20/TLR7/8/9 IC50) compared to the compounds of this invention [3]: much narrower safety window | hERG IC20/TLR7 IC50 [3]: 0.3 | hERG IC20/TLR9 IC50 [3]: 0.2

C[C@@H]1CN(c2ccc(C#N)c3ncccc23)C[C@H](CN2CCN(c3ccc(Cl)cc3)CC2)O1 [Example R2, 5-[(2S,6R)-2-[[4-(4-chlorophenyl)piperazin-1-yl]methyl]-6-methyl-morpholin-4-yl]quinoline-8-carbonitrile, reference compound]
safety window (hERG IC20/TLR7/8/9 IC50) compared to the compounds of this invention [3]: much narrower safety window | hERG IC20/TLR7 IC50 [3]: 1.3 | hERG IC20/TLR8 IC50 [3]: 0.8 | hERG IC20/TLR9 IC50 [3]: 0.04

Cc1nn(C)cc1S(=O)(=O)NC1CCN(C[C@H]2CN(c3ccc(C#N)c4ncccc34)C[C@@H](C)O2)CC1 [ER-894160]
IC50 [1]: > 10000 nM

C[C@@H]1CN(c2ccc(C#N)c3ncccc23)C[C@H](CN2CC[C@@H](NC(=O)c3ccccc3)C2)O1 [ER-894544]
IC50 [1]: > 6200 nM

C[C@@H]1CN(c2ccc(C#N)c3ncccc23)C[C@H](CN2CCN(c3ccccc3)CC2)O1 [ER-887258, reference compound]
IC50 [1]: > 2000 nM | safety window (hERG IC20/TLR7/8/9 IC50) compared to the compounds of this invention [3]: much narrower safety window | hERG IC20/TLR7 IC50 [3]: 8.1 | hERG IC20/TLR9 IC50 [3]: 0.3

C[C@@H]1CN(c2ccc(C#N)c3ncccc23)C[C@H](CN2CCN(c3ccccn3)CC2)O1 [ER-888285, reference compound]
IC50 [1]: > 2000 nM | safety window (hERG IC20/TLR7/8/9 IC50) compared to the compounds of this invention [3]: much narrower safety window | hERG IC20/TLR7 IC50 [3]: 8.4 | hERG IC20/TLR9 IC50 [3]: 0.5

COc1ccc(N2CCN(C[C@H]3CN(c4ccc(C#N)c5ncccc45)C[C@@H](C)O3)CC2)cc1 [Example R1, 5-[(2S,6R)-2-[[4-(4-methoxyphenyl)piperazin-1-yl]methyl]-6-methyl-morpholin-4-yl]quinoline-8-carbonitrile, reference compound]
safety window (hERG IC20/TLR7/8/9 IC50) compared to the compounds of this invention [3]: much narrower safety window | hERG IC20/TLR7 IC50 [3]: 9.3 | hERG IC20/TLR8 IC50 [3]: 6.2 | hERG IC20/TLR9 IC50 [3]: 0.1
